According to PMC8126888 (RSC Medicinal Chemistry, 2020):
Read-outs that look alike come from different tables or passages of the source.

How the values were obtained:
[1] = system: Leishmania infantum MHOM/MA(BE)/67/ITMAP263 intracellular amastigotes; assay: microbe, parasite or virus in culture; settings: Macrophage, in Mus musculus
[2] = system: primary peritoneal mouse macrophages (PMM); assay: cells; settings: Macrophage
in vitro [3] = settings: human, microsomes
physchem = settings: pH 7.4, elog D, HPLC measured log D, pH 7.4
in vitro [4] = settings: mouse, microsomes
in vitro [5] = settings: human
[6] = system: Trypanosoma cruzi, Tulahuen CL2, beta-galactosidase strain; assay: microbe, parasite or virus in culture; settings: MRC5, read-out: T. cruzi Tulahuen C4 (LacZ) IC50
[7] = read-out: L. inf. pIC50, intracellular amastigotes in PMM (converted), geometric mean of a minimum of two experiments ± standard error
[8] = read-out: PMM pIC50 (converted)
[9] = pH 7.4, Microsome Clint Human, intrinsic in vitro clearance, liver microsomes
[10] = HPLC, Ascentis Express RP Amide column
[11] = pH 7.4, Microsome Clint Mouse, intrinsic in vitro clearance, liver microsomes
[12] = pH 7.4, Microsome Clint,u Human, Table 2, intrinsic in vitro clearance, liver microsomes
[13] = pH 7.4, Microsome Clint,u Mouse, Table 2, intrinsic in vitro clearance, liver microsomes

COc1ccc(OC)c(S(=O)(=O)N(Cc2ccccc2)Cc2ccccc2)c1 [Compound 9]
IC50 [1, 7]: 0.372 µM
IC50 [2, 8]: > 64.6 µM
microsomal CLint at 0.5 μM (in vitro [3]; [9]): 242 µL/min/mg
chromatographic logD (physchem; [10]): 4.6
microsomal CLint at 0.5 μM (in vitro [4]; [11]): 1300 µL/min/mg

COc1ccc(S(=O)(=O)N(Cc2ccccc2)Cc2ccccc2)cc1 [Compound 11]
IC50 [1, 7]: 45.7 µM
IC50 [2, 8]: > 64.6 µM
microsomal CLint at 0.5 μM (in vitro [3]; [9]): 184 µL/min/mg
chromatographic logD (physchem; [10]): 4.7
microsomal CLint at 0.5 μM (in vitro [4]; [11]): 2410 µL/min/mg

CS(=O)(=O)c1ccccc1S(=O)(=O)N(Cc1ccccc1)Cc1ccccc1 [Compound 14]
IC50 [1, 7]: 32.4 µM
IC50 [2, 8]: > 64.6 µM
microsomal CLint at 0.5 h, 0.5 µM (in vitro [3]; [9]): 417 µL/min/mg
chromatographic logD (physchem; [10]): 4
microsomal CLint at 0.5 h, 0.5 µM (in vitro [4]; [11]): 2880 µL/min/mg

O=S(=O)(c1ccccc1OC(F)(F)F)N(Cc1ccccc1)Cc1ccccc1 [Compound 15]
IC50 [1, 7]: 1.1 µM
IC50 [2, 8]: > 64.6 µM
microsomal CLint at 0.5 h, 0.5 µM (in vitro [3]; [9]): 92.9 µL/min/mg
chromatographic logD (physchem; [10]): 5.1
microsomal CLint at 0.5 μM (in vitro [4]; [11]): 689 µL/min/mg

N#Cc1ccc(O)c(S(=O)(=O)N(Cc2ccc(F)cc2)Cc2ccc(F)cc2)c1 [Compound 16]
IC50 [1, 7]: 30.9 µM
IC50 [2, 8]: 45.7 µM
microsomal CLint at 0.5 h, 0.5 µM (in vitro [3]; [9]): 27.4 µL/min/mg
chromatographic logD (physchem; [10]): 3.7
microsomal CLint at 0.5 h, 0.5 µM (in vitro [4]; [11]): 1100 µL/min/mg

COc1ccc(C(=O)O)cc1S(=O)(=O)N(Cc1ccccc1)Cc1ccccc1 [Compound 20]
IC50 [1, 7]: 57.5 µM
IC50 [2, 8]: > 64.6 µM
microsomal CLint at 0.5 μM (in vitro [3]; [9]): < 23 µL/min/mg
chromatographic logD (physchem; [10]): 2.5
microsomal CLint at 0.5 h, 0.5 µM (in vitro [4]; [11]): 94 µL/min/mg

COc1ccc(C(N)=O)cc1S(=O)(=O)N(Cc1ccccc1)Cc1ccccc1 [Compound 21]
IC50 [1, 7]: 7.41 µM
IC50 [2, 8]: > 64.6 µM
microsomal CLint at 0.5 μM (in vitro [3]; [9]): 108 µL/min/mg
chromatographic logD (physchem; [10]): 3.6
microsomal CLint at 0.5 μM (in vitro [4]; [11]): 1670 µL/min/mg

COc1ccc(C(=O)N2CCOCC2)cc1S(=O)(=O)N(Cc1ccccc1)Cc1ccccc1 [Compound 22]
IC50 [1, 7]: 0.457 µM
IC50 [2, 8]: 45.7 µM
microsomal CLint at 0.5 μM (in vitro [3]; [9]): 810 µL/min/mg
chromatographic logD (physchem; [10]): 3.8
microsomal CLint at 0.5 h, 0.5 µM (in vitro [4]; [11]): 2020 µL/min/mg

COc1ccc(N2CCOCC2)cc1S(=O)(=O)N(Cc1ccc(F)cc1)Cc1ccc(F)cc1 [Compound 25]
IC50 [1, 7]: 0.324 µM
IC50 [2, 8]: > 64.6 µM
microsomal CLint at 0.5 h, 0.5 µM (in vitro [3]; [9]): 421 µL/min/mg
chromatographic logD (physchem; [10]): 4.2
microsomal CLint at 0.5 h, 0.5 µM (in vitro [4]; [11]): 1400 µL/min/mg

COc1ccc(S(N)(=O)=O)cc1S(=O)(=O)N(Cc1ccccc1)Cc1ccccc1 [Compound 27]
IC50 [1, 7]: 0.562 µM
IC50 [2, 8]: > 64.6 µM
microsomal CLint at 0.5 h, 0.5 µM (in vitro [3]; [9]): 94.1 µL/min/mg
chromatographic logD (physchem; [10]): 3.6
microsomal CLint at 0.5 h, 0.5 µM (in vitro [4]; [11]): 884 µL/min/mg

COc1ccc([S+](C)[O-])cc1S(=O)(=O)N(Cc1ccccc1)Cc1ccccc1 (stereo not shown) [Compound 28]
IC50 [1, 7]: 0.589 µM
IC50 [2, 8]: > 64.6 µM
microsomal CLint at 0.5 h, 0.5 µM (in vitro [3]; [9]): 233 µL/min/mg
chromatographic logD (physchem; [10]): 3.5
microsomal CLint at 0.5 h, 0.5 µM (in vitro [4]; [11]): 929 µL/min/mg

COc1ncccc1S(=O)(=O)N(Cc1ccccc1)Cc1ccccc1 [Compound 30]
IC50 [1, 7]: 0.646 µM
IC50 [2, 8]: > 64 µM
microsomal CLint at 0.5 μM (in vitro [3]; [9]): 849 µL/min/mg
chromatographic logD (physchem): 4.3
microsomal CLint at 0.5 h, 0.5 µM (in vitro [4]; [11]): 2570 µL/min/mg

Cn1cccc(S(=O)(=O)N(Cc2ccc(F)cc2)Cc2ccc(F)cc2)c1=O [Compound 31]
IC50 [1, 7]: 20.9 µM
IC50 [2, 8]: > 64 µM
microsomal CLint at 0.5 h, 0.5 µM (in vitro [3]; [9]): 676 µL/min/mg
chromatographic logD (physchem): 3.7
microsomal CLint at 0.5 h, 0.5 µM (in vitro [4]; [11]): 2450 µL/min/mg

COc1ccc(OC)c(S(=O)(=O)N(Cc2ccc(F)cc2)c2ccc(F)cc2)c1 [Compound 33]
IC50 [1, 7]: 11.5 µM
IC50 [2, 8]: > 64.6 µM
microsomal CLint at 0.5 h, 0.5 µM (in vitro [3]; [12]): 482 µL/min/mg
chromatographic logD (physchem; [10]): 4.3
microsomal CLint at 0.5 h, 0.5 µM (in vitro [4]; [13]): 1560 µL/min/mg

COc1ccc(OC)c(S(=O)(=O)N(Cc2ccc(F)cc2)Cc2cnc(OC)nc2OC)c1 [Compound 34]
IC50 [1, 7]: 53.7 µM
IC50 [2, 8]: > 64.6 µM
microsomal CLint at 0.5 h, 0.5 µM (in vitro [3]; [12]): 498 µL/min/mg
chromatographic logD (physchem; [10]): 3.8
microsomal CLint at 0.5 h, 0.5 µM (in vitro [4]; [13]): 3150 µL/min/mg

COc1ccc(C(N)=O)cc1S(=O)(=O)N(Cc1ccccc1)Cc1ccccc1 [DNDI0003366135]
CC50 at 3 days (in vitro [5]): 43.2 µM
IC50 ([1]; read-out: L. Inf. pIC50, from L. infantum intracellular amastigote IC50 (converted)): 7.41 µM
IC50 ([1]; read-out: L. infantum MHOM/MA(BE)/67/ITMAP263 intracellular amastigotes IC50, intracellular amastigotes): 7.39 µM
IC50 ([2]; read-out: PMM IC50): > 64 µM
microsomal CLint at 0.5 μM (in vitro [3]; pH 7.4, HLM CLint, human liver microsomes): 108 µL/min/mg
IC50 [6]: > 64 µM
microsomal CLint at 0.5 μM (in vitro [4]; pH 7.4, MLM CLint, mouse liver microsomes): 1670 µL/min/mg
